Measurements: patent US6274619A, “Amidino substituted tetrahydrobenzo thiophene or furan derivatives and their use as urokinase inhibitors” (Fujisawa Pharmaceutical Co., Ltd., priority 1996, dated 2001)
Counter-ions that a name gives are not always drawn.

Target: T1, human high molecular weight urokinase (Homo sapiens, UniProt P00749)
T1 construct: purchased Fujisawa Pharmaceutical Co., Ltd
Test: Urokinase inhibiting effect (chromogenic substrate S-2288)
Format: biochemical
Conditions: 25 IU/ml urokinase, substrate S-2288, pH 7.5, 37° C., 30 minutes, A405
Protocol: Now in order to show the utility of the object compound (I) and pharmaceutically acceptable salts, the test datum on urokinase inhibiting effect of the representative compound of the compound (I) of this invention is shown in the following.
Test Compound was incubated at desired concentrations with 25 International Units (IU)/ml human high molecular weight urokinase (Fujisawa Pharmaceutical Co., Ltd.) and urokinase substrate (S-2288, H-D-Isoleucyl-L-prolyl-L-arginine-p-nitroaniline dihydrochloride; Chromagenix, Sweden; Japan distributors Daiichikagakuyakuhin Co., Ltd.) in a 100 μl final volume of 50 mM Tris, 100 mM NaCl, 1 mM Na2 EDTA, 0.01% (v/v) polyoxyethylenesorbitan monooleate (Tween 80), pH 7.5 (Buffer Z). Incubations were carried out at 37° C. for 30 minutes. Color was quantitated by measuring absorbance at 405 nm (A405) using EL312 Automated Microplate Reader.

IC50: 0.47 µM
SMILES: CCCC=C1CCCc2sc(C(=N)N)cc21 [Compound A, 2-Amidino-4-n-butylidene-4,5,6,7-tetrahydrobenzo[b]thiophene hydrochloride]
